Data: BindingDB's records for doi:10.1016/j.bmcl.2004.08.038 (Glaxosmithkline, 2004)

Biological target: T1, Dimer of Gag-Pol polyprotein [501-599,Q508K,L534I,L564I,C568A,C596A] (Human immunodeficiency virus 1, UniProt P03367, C568A/C596A/L534I/L564I/Q508K)
T1 construct: 501-599
Assay: Protease Inhibition Assay
Conditions: pH 6.4; 25 °C
Description: The Ki values were determined using fluorogenic substrate, 2-(aminobenzoyl)-Thr-Ile-Nle-Phe(p-NO2)-Gln-ArgNH2. A standard curve relating changes in fluorescent intensity to changes in concentration of product was used to convert fluorescent changes into molar velocities. The amount of cleavage was determined by HPLC.

SMILES	Ki [µM]
O=C(N[C@H]1c2ccccc2C[C@H]1O)[C@H](Cc1ccccc1)C[C@H](O)CN1C(=O)N(Cc2ccccn2)C[C@@H]1Cc1ccccc1 [(2R,4S)-2-benzyl-5-[(5S)-5-benzyl-2-oxo-3-(pyridin-2-ylmethyl)imidazolidin-1-yl]-4-hydroxy-N-[(1S,2R)-2-hydroxy-2,3-dihydro-1H-inden-1-yl]pentanamide]	0.041
COc1ccc(CN2C[C@H](Cc3ccccc3)N(C[C@@H](O)C[C@@H](Cc3ccccc3)C(=O)N[C@H]3c4ccccc4C[C@H]3O)C2=O)cc1 [(2R,4S)-2-benzyl-5-[(5S)-5-benzyl-3-[(4-methoxyphenyl)methyl]-2-oxoimidazolidin-1-yl]-4-hydroxy-N-[(1S,2R)-2-hydroxy-2,3-dihydro-1H-inden-1-yl]pentanamide]	0.0056
O=C(N[C@H]1c2ccccc2C[C@H]1O)[C@H](Cc1ccccc1)C[C@H](O)CN1C(=O)N(Cc2ccncc2)C[C@@H]1Cc1ccccc1 [(2R,4S)-2-benzyl-5-[(5S)-5-benzyl-2-oxo-3-(pyridin-4-ylmethyl)imidazolidin-1-yl]-4-hydroxy-N-[(1S,2R)-2-hydroxy-2,3-dihydro-1H-inden-1-yl]pentanamide]	0.19
O=C(N[C@H]1c2ccccc2C[C@H]1O)[C@H](Cc1ccccc1)C[C@H](O)CN1C(=O)N(Cc2cccc(F)c2)C[C@@H]1Cc1ccccc1 [(2R,4S)-2-benzyl-5-[(5S)-5-benzyl-3-[(3-fluorophenyl)methyl]-2-oxoimidazolidin-1-yl]-4-hydroxy-N-[(1S,2R)-2-hydroxy-2,3-dihydro-1H-inden-1-yl]pentanamide]	0.0032
COc1cc(CN2C[C@H](Cc3ccccc3)N(C[C@@H](O)C[C@@H](Cc3ccccc3)C(=O)N[C@H]3c4ccccc4C[C@H]3O)C2=O)cc(OC)c1OC [(2R,4S)-2-benzyl-5-[(5S)-5-benzyl-2-oxo-3-[(3,4,5-trimethoxyphenyl)methyl]imidazolidin-1-yl]-4-hydroxy-N-[(1S,2R)-2-hydroxy-2,3-dihydro-1H-inden-1-yl]pentanamide]	0.1
CS(=O)(=O)c1ccc(CN2C[C@H](Cc3ccccc3)N(C[C@@H](O)C[C@@H](Cc3ccccc3)C(=O)N[C@H]3c4ccccc4C[C@H]3O)C2=O)cc1 [(2R,4S)-2-benzyl-5-[(5S)-5-benzyl-3-[(4-methanesulfonylphenyl)methyl]-2-oxoimidazolidin-1-yl]-4-hydroxy-N-[(1S,2R)-2-hydroxy-2,3-dihydro-1H-inden-1-yl]pentanamide]	0.3
O=C(N[C@H]1c2ccccc2C[C@H]1O)[C@H](Cc1ccccc1)C[C@H](O)CN1C(=O)N(Cc2cccnc2)C[C@@H]1Cc1ccccc1 [(2R,4S)-2-benzyl-5-[(5S)-5-benzyl-2-oxo-3-(pyridin-3-ylmethyl)imidazolidin-1-yl]-4-hydroxy-N-[(1S,2R)-2-hydroxy-2,3-dihydro-1H-inden-1-yl]pentanamide]	0.018
